The text below walks through data of patent US20190223437A1, “ACTIVE COMPOUND COMBINATIONS COMPRISING A 5-SUBSTITUTED IMIDAZOLE DERIVATIVE” (BAYER CROPSCIENCE AKTIENGESELLSCHAFT, priority 2016, published 2019).

Molecules are shown by their SMILES. Marks after values point to notes of the source that are not given here.

A short description of the first data set: Measurement of Log P values by HPLC on reversed phase columns (EEC directive 79/831 Annex V.A8). It counts as physicochemical.
Settings: not given
Regarding `OC(Cc1ccccc1F)(Cn1cncc1Br)C1(Cl)CC1` (racemic) [Example I-33], the LogP was 2.10^[a]. For the compound `COc1cncn1CC(O)(Cc1ccccc1F)C1(Cl)CC1` (racemic) [Example I-35], the LogP was 1.67^[a]. As for `C#Cc1cncn1CC(O)(Cc1ccccc1F)C1(Cl)CC1` (racemic) [Example I-36], the LogP was 1.89^[a]. On to `OC(Cc1ccccc1F)(Cn1cncc1C1CC1)C1(Cl)CC1` (racemic) [Example I-37], for which the LogP was 1.86^[a]. `C#Cc1cncn1CC(O)(Cc1ccccc1Cl)C1(Cl)CC1` (racemic) [Example I-38]: the LogP was 2.09^[a]. Consider `OC(Cc1ccccc1)(Cn1cncc1Cl)C1(Cl)CC1` (racemic) [Example I-39], for which the LogP is 2.04^[a]. With `N#Cc1cncn1CC(O)(Cc1ccc(Br)cc1Cl)C1(Cl)CC1` (racemic) [Example I-41], the LogP was 3.52^[a]. Turning to `N#Cc1cncn1CC(O)(Cc1ccc(Br)cc1F)C1(Cl)CC1` (racemic) [Example I-42], the LogP is 3.24^[a]. As for `OC(Cc1ccc(Br)cc1F)(Cn1cncc1Cl)C1(Cl)CC1` (racemic) [Example I-44], the LogP was 2.64^[a].

Turning to `N#Cc1cncn1CC(O)(Cc1ccncc1Br)C1(Cl)CC1` (racemic) [Example I-46], the LogP is 1.94^[a]. `N#Cc1cncn1CC(O)(Cc1cc(Br)ncc1Br)C1(Cl)CC1` (racemic) [Example I-47]: the LogP is 2.73^[a].

As to `N#Cc1cncn1CC(O)(Cc1cccc(Cl)c1Cl)C1(Cl)CC1` (racemic) [Example I-49], the LogP was 3.25^[a].

In the case of `N#Cc1cncn1CC(O)(Cc1ccnc(Cl)c1Cl)C1(Cl)CC1` (racemic) [Example I-50], the LogP was 2.47^[a].

With `N#Cc1cncn1CC(O)(Cc1ccc(Oc2ccc(Cl)cc2)cc1Cl)C1(Cl)CC1` (racemic) [Example I-53], the LogP was 4.54^[a]. `COc1ccccc1CC(O)(Cn1cncc1C#N)C1(Cl)CC1` (racemic) [Example I-55]: the LogP was 2.93^[a].

Consider `N#Cc1cncn1CC(O)(Cc1cc(Cl)ncc1Cl)C1(Cl)CC1` (racemic) [Example I-56], for which the LogP was 2.62^[a]. Same read-out and setting: the result for `N#Cc1cncn1CC(O)(Cc1ccncc1Cl)C1(Cl)CC1` (racemic) [Example I-57] reads 1.88^[a]; that for `N#Cc1cncn1CC(O)(Cc1cc(Cl)cc(Cl)c1)C1(Cl)CC1` (racemic) [Example I-58], 3.55^[a]; that for `N#Cc1cncn1CC(O)(Cc1ccnc(Cl)c1)C1(Cl)CC1` (racemic) [Example I-62], 2.04^[a].

Regarding `N#Cc1cncn1CC(O)(Cc1ccc(Cl)cc1)C1(Cl)CC1` (racemic) [Example I-64], the LogP was 3.10^[a].

With `OC(Cc1cccc(Cl)c1Cl)(Cn1cncc1Cl)C1(Cl)CC1` (racemic) [Example I-66], the LogP was 2.69^[a]. With `OC(Cc1ccnc(Cl)c1Cl)(Cn1cncc1Cl)C1(Cl)CC1` (racemic) [Example I-67], the LogP is 2.08^[a]. With `Cc1ccc(CC(O)(Cn2cncc2Cl)C2(Cl)CC2)c(C)c1` (racemic) [Example I-68], the LogP is 2.69^[a]. `Cc1ccccc1CC(O)(Cn1cncc1Cl)C1(Cl)CC1` (racemic) [Example I-71]: the LogP was 2.33^[a]. As to `OC(Cc1ccncc1Cl)(Cn1cncc1Cl)C1(Cl)CC1` (racemic) [Example I-72], the LogP is 1.52^[a].

Consider `OC(Cc1cc(Cl)nc(Cl)c1)(Cn1cncc1Cl)C1(Cl)CC1` (racemic) [Example I-74], for which the LogP was 2.23^[a]. On to `OC(Cc1ccnc(Cl)c1)(Cn1cncc1Cl)C1(Cl)CC1` (racemic) [Example I-75], for which the LogP is 1.62^[a]. With `Nc1cncn1CC(O)(Cc1ccccc1Cl)C1(Cl)CC1` (racemic) [Example I-78], the LogP is 1.50^[a].

In the case of `CC1(C(O)(Cc2ccccc2Cl)Cn2cncc2C#N)CC1` (racemic) [Example I-79], the LogP was 2.87^[a]. On the same count and under the same terms, the result for `N#Cc1cncn1CC(O)(Cc1ccccc1Cl)C1CC1` (racemic) [Example I-80] reads 2.57^[a]; that for `CC(C)C(O)(Cc1ccccc1Cl)Cn1cncc1C#N` (racemic) [Example I-82], 2.67^[a]. As to `CC(C)(C)CC(O)(Cc1ccccc1Cl)Cn1cncc1C#N` (racemic) [Example I-83], the LogP was 3.55^[a].

With `N#Cc1cncn1CC(O)(Cc1ccccc1Cl)CC1CC1` (racemic) [Example I-84], the LogP was 2.84^[a].

For `N#Cc1cncn1CC(O)(Cc1cccc(Cl)c1Cl)C1CCC1` (racemic) [Example I-85], the LogP was 3.31^[a]. As for `CC(C)(C)CC(O)(Cc1ccc(Cl)cc1)Cn1cncc1C#N` (racemic) [Example I-86], the LogP is 3.37^[a].

`OC(Cc1ccccc1C(F)(F)F)(Cn1cncc1Cl)C1(Cl)CC1` (racemic) [Example I-89]: the LogP was 2.62^[a].

As to `N#Cc1cncn1CC(O)(Cc1ccncc1C(F)(F)F)C1(Cl)CC1` (racemic) [Example I-92], the LogP is 2.18^[a]. In the case of `N#Cc1cncn1CC(O)(Cc1ccc(Cl)cc1F)C1(F)CC1` (racemic) [Example I-96], the LogP is 2.78^[a]. Turning to `N#Cc1cncn1CC(O)(Cc1ccccc1Cl)C1(F)CC1` (racemic) [Example I-98], the LogP was 2.53^[a]. With `N#Cc1cncn1CC(O)(Cc1ccc(F)cc1)C1(F)CC1` (racemic) [Example I-100], the LogP was 2.35^[a]. As for `OC(Cc1ccc(Cl)cc1F)(Cn1cncc1Cl)C1(Cl)CC1` (single isomer, unassigned) [Example I-113], the log partition coefficient (LogP) is 2.54^[a].

In the case of `COC(=O)c1cncn1CC(O)(Cc1ccccc1Cl)C1(Cl)CC1` (centres unmarked) [Example I-01], the LogP was 2.82^[a]. In the case of `Cc1cncn1CC(O)(Cc1ccccc1Cl)C1(Cl)CC1` (centres unmarked) [Example I-03], the lipophilicity (LogP) was 1.72^[a]. For `OC(Cc1ccccc1Cl)(Cn1cncc1Br)C1(Cl)CC1` (centres unmarked) [Example I-04], the LogP was 2.27^[a]. In the case of `OC(Cn1cncc1Cl)(C(F)c1ccccc1Cl)C1(Cl)CC1` (centres unmarked) [Example I-05], the LogP was 2.17^[a]. As to `OC(Cc1cccnc1Cl)(Cn1cncc1Cl)C1(Cl)CC1` (centres unmarked) [Example I-07], the LogP is 1.57^[a]. On to `OC(Cc1ccc(F)cc1Cl)(Cn1cncc1Cl)C1(Cl)CC1` (centres unmarked) [Example I-08], for which the lipophilicity (LogP) is 2.47^[a]. Same read-out and setting: the result for `Cc1cncn1CC(O)(Cc1cccnc1Cl)C1(Cl)CC1` (centres unmarked) [Example I-10] reads 1.22^[a]; that for `OC(Cc1c(Cl)ccnc1Cl)(Cn1cncc1Cl)C1(Cl)CC1` (centres unmarked) [Example I-11], 2.02^[a]; that for `Cc1cncn1CC(O)(C(F)c1ccccc1Cl)C1(Cl)CC1` (centres unmarked) [Example I-13], 1.75^[a].

For `OC(Cc1ccccc1Cl)(Cn1cncc1I)C1(Cl)CC1` (centres unmarked) [Example I-14], the LogP was 2.14^[a].

As for `OC(Cc1ccccc1Cl)(Cn1cncc1C(F)(F)F)C1(Cl)CC1` (centres unmarked) [Example I-15], the LogP was 3.63^[a]. With `OC(Cc1ccccc1Cl)(Cn1cncc1F)C1(Cl)CC1` (centres unmarked) [Example I-16], the LogP is 1.94^[a].

Regarding `OC(Cc1cc(Cl)ncc1Cl)(Cn1cncc1Cl)C1(Cl)CC1` (centres unmarked) [Example I-17], the LogP is 2.18^[a]. For the compound `OC(Cc1cc(F)ncc1Cl)(Cn1cncc1Cl)C1(Cl)CC1` (centres unmarked) [Example I-18], the LogP was 2.01^[a].

`N#CCc1cncn1CC(O)(Cc1ccccc1Cl)C1(Cl)CC1` (centres unmarked) [Example I-21]: the LogP is 1.66^[a]. With `CSc1cncn1CC(O)(Cc1ccccc1Cl)C1(Cl)CC1` (centres unmarked) [Example I-22], the LogP is 2.08^[a]. As to `OC(Cn1cncc1Br)(C(F)c1ccccc1Cl)C1(Cl)CC1` (centres unmarked) [Example I-23], the LogP is 2.32^[a].

As for `N#Cc1cncn1CC(O)(C(F)c1ccccc1Cl)C1(Cl)CC1` (centres unmarked) [Example I-24], the log partition coefficient (LogP) is 2.82^[a]. Take `OC(Cc1cccnc1Cl)(Cn1cncc1Br)C1(Cl)CC1` (centres unmarked) [Example I-25]: the LogP is 1.56^[a].

As for `N#Cc1cncn1CC(O)(Cc1cccnc1Cl)C1(Cl)CC1` (centres unmarked) [Example I-26], the log partition coefficient (LogP) was 2.01^[a]. `OC(Cn1cncc1Cl)(C(F)c1ccccc1F)C1(Cl)CC1` (centres unmarked) [Example I-28]: the LogP was 2.01^[a]. Still for that read-out and setting: in the case of `OC(Cc1ccc(Cl)cc1F)(Cn1cncc1Br)C1(Cl)CC1` (centres unmarked) [Example I-30] it was 2.55^[a]; in that of `OC(Cc1ccccc1F)(Cn1cncc1Cl)C1(Cl)CC1` (centres unmarked) [Example I-32], 2.07^[a]. On to `N#Cc1cncn1CC(O)(Cc1ccc(F)c(F)c1F)C1CCC1` (centres unmarked) [Example I-104], for which the LogP was 2.78^[a]. On to `CC(C)C(O)(Cc1ccc(F)c(F)c1F)Cn1cncc1C#N` (centres unmarked) [Example I-105], for which the LogP was 2.78^[a]. On to `Cc1ccc(CC(O)(Cn2cncc2Cl)C2(Cl)CC2)c(F)c1` (centres unmarked) [Example I-108], for which the LogP was 2.34^[a]. `N#Cc1cncn1CC(O)(Cc1ccc(F)c(F)c1)C1(Cl)CC1` (centres unmarked) [Example I-109]: the LogP was 2.78^[a].

`OC(Cc1ccc(F)c(F)c1)(Cn1cncc1Cl)C1(Cl)CC1` (centres unmarked) [Example I-110]: the LogP was 2.23^[a].

Consider `NC(=O)c1cncn1CC(O)(Cc1ccc(Cl)cc1F)C1CC1` (centres unmarked) [Example I-116], for which the LogP is 1.49^[a]. For the compound `N#Cc1cncn1CC(O)(Cc1ccc(Cl)cc1F)C1CCC1` (centres unmarked) [Example I-117], the LogP is 3.13^[a]. On to `CC(C)C(O)(Cc1ccc(Cl)cc1F)Cn1cncc1C#N` (centres unmarked) [Example I-118], for which the LogP was 2.91^[a].

On to `COC(Cc1ccc(Cl)cc1F)(Cn1cncc1C#N)C1CC1` (centres unmarked) [Example I-121], for which the LogP was 3.31^[a]. In the case of `CCOC(Cc1ccc(Cl)cc1F)(Cn1cncc1Cl)C1(Cl)CC1` (centres unmarked) [Example I-122], the LogP is 3.10^[a].

Still in this data set, the particulars now being: method [a]: LC-UV, acidic range, 0.1% formic acid in water and acetonitrile as eluent; Table 1, compounds of formula (I).
Take `N#Cc1cncn1CC(O)(Cc1ccc(-c2ccccc2)cc1)C1(Cl)CC1` (racemic) [Example I-63]: the LogP is 3.68^[a].

Regarding `OC(Cc1ccccc1Cl)(Cn1cncc1Cl)C1(Cl)CC1` (centres unmarked) [Example I-02], the LogP was 2.32.

The same data set, now with this note: method [c]: LC-UV, acidic range, 0.1% phosphoric acid and acetonitrile as eluent; Table 1.
`OC(Cc1ccccc1Cl)(Cn1cncc1Cl)C1(Cl)CC1` (centres unmarked) [Example I-02] yielded a LogP of 2.00.
